Test results from patent publication US20210122780A1, “COMPOSITIONS FOR THE PREVENTION AND TREATMENT OF PARKINSON'S DISEASE” (Metselex, Inc., priority 2018, published 2021).

Experiments:
[1] = tested on: Alkaline phosphatase from bovine intestinal mucosa; experiment: Alkaline phosphatase activation of prodrugs (31P NMR); type: biochemical; conditions: in vitro, FIG. 5
Description: Alkaline phosphatase activation of prodrugs 3 and 19d. Alkaline phosphatase from bovine intestinal mucosa (Sigma-Aldrich, P5521-2KU) was dissolved in 2.0 mL of a 0.100 M sodium glycine buffer containing 1.0 mM ZnCl2 and 1.0 mM MgCl2. This stock solution was stored at 4° C. between uses.
Compound 19d (10.0 mg, 0.016 mmol) or compound 3 (8.7 mg, 0.016 mmol) were dissolved in 0.6 mL of a 0.100 M tris glycine buffer solution containing 1.0 mM ZnCl2 and 1.0 mM MgCl2. […] 50 μL of the previously prepared AP stock solution was further diluted by addition to 0.950 mL of a 0.100 M tris glycine buffer containing 1.0 mM ZnCl2 and 1.0 mM MgCl2. 10.0 μL of this diluted AP solution was added to the prodrug solution by syringe. A series of 42 inverse-gated decoupled ^31P NMR's were taken (24 scans each, approximately one minute acquisition time). Conversion (%) was determined from the relative integration of the starting material and product peaks, NMR time stamps were used to determine time. Each experiment was repeated three times.

Primary rat hepatocytes = experiment: Cell viability and apoptosis assays, TGF-β1-exposed hepatocytes; type: cell-based; conditions: 100 μM, with or without 3 U/ml alkaline phosphatase, TGF-β1 24 h
Description: Cell culture and treatments. Primary rat hepatocytes were isolated from male rats (100-150 g) by collagenase perfusion. Briefly, rats were anesthetized with phenobarbital sodium (100 mg/kg body weight) injected into the peritoneal cavity. After administration of heparin (200 units/kg body weight) in the tail vein, the animals' abdomen was opened and the portal vein exposed and cannulated. The liver was then perfused at 37° C. in situ with a calcium-free Hanks' Balanced Salt Solution (HBSS) for ˜10 min, and then with 0.05% collagenase type IV in calcium-present HBSS for another 10 min. […] Cell viability was determined by trypan blue exclusion and was typically 80-85%. […]
Cell viability assays. […] Finally, absorbance was measured at 490 nm, with 690 nm as reference, using a Bio-Rad model 680-microplate reader (Bio-Rad Laboratories, Hercules, Calif., USA).
To assess cellular viability, the CellTiter-Fluor™ viability assay was used (Promega Corp., Madison, Wis., USA). Briefly, viable cells are measured using a fluorogenic, cell-permeant, peptide substrate (Gly-Phe-AFC), which is cleaved by the live-cell protease activity to generate a fluorescent signal proportional to the number of living cells. Cells were incubated with an equal volume of CellTiter-Fluor™ Reagent for 30 min at 37° C. and resulting fluorescence (380-400 nmEx/505 nmEm) measured using a GloMax+ Multi Detection System (Promega Corp.). […]

`CC(CCC(=O)OCOP(=O)(O)O)C1CCC2C3C(O)CC4CC(O)CCC4(C)C3CCC12C` (centres unmarked) [Compound 19, ursodeoxycholic acid phosphonooxymethoxy ester] was tested. Which “rate of alkaline phosphatase catalyzed release of UDCA” value [1] did it give?
The value was “faster than prodrug 3”.

What about the “anti-apoptotic potency in in vitro assays” value (Primary rat hepatocytes) of the same molecule?
The value was “highly active in these assays, but required activation by exogenous alkaline phosphatase”.
